Measured values taken from patent US20070270484A1, “3'-N-Substituted-3-O-Substituted Erythronolide a Derivatives” (priority 2003, published 2007).

What was measured:
S. pneum AB 14 (erm) = test: microbe, parasite or virus in culture; format: cell-based, streptococcus pneumoniae; details: agar dilution, 18-24 hours, 35±2° C., 5% CO2; erm: ribosomal modification (mutation) erm genes
Procedure: (§1) Drug dilutions and the agar plates are prepared by NCCLS method. Inoculum is prepared by direct colony suspensions in normal saline and adjusted to 0.5 McFarland turbidity and subsequently diluted as per NCCLS guidelines in order to obtain 10^4 CFU/spot. CFU/ml of a few randomly selected cultures is performed. The cultures are replicated on the agar plates using replicator (Denley's multipoint). The plates are incubated at 35±2° C. and in 5% CO2 atmosphere (for respiratory and Haemophilus strains) for 18-24 hours at 35±2° C. Minimum inhibitory concentrations (MIC) are determined after 18-24 hours. Q. C. strains are also included in each run of the study. The cation content of Mueller Hinton agar is checked by performing disk […] of 10 μg gentamicin disk against Pseudomonas aeroginosa ATCC 27853. The zone of inhibition should fall between 16-21 mm. The concentration of drug at which there is complete disappearance of growth spot or formation of less than 10 colonies per spot is considered as MIC.

S. pneum 1256 (erm) = test: microbe, parasite or virus in culture; format: cell-based, streptococcus pneumoniae; details: agar dilution, 18-24 hours, 35±2° C., 5% CO2; erm: ribosomal modification (mutation) erm genes
Procedure: as §1

S. pneum 1275 (erm) = test: microbe, parasite or virus in culture; format: cell-based, streptococcus pneumoniae; details: agar dilution, 18-24 hours, 35±2° C., 5% CO2; erm: ribosomal modification (mutation) erm genes
Procedure: as §1

S. pneum AB 29 (erm) = test: microbe, parasite or virus in culture; format: cell-based, streptococcus pneumoniae; details: agar dilution, 18-24 hours, 35±2° C., 5% CO2; erm: ribosomal modification (mutation) erm genes
Procedure: as §1

S. pneum AB 30 (erm) = test: microbe, parasite or virus in culture; format: cell-based, streptococcus pneumoniae; details: agar dilution, 18-24 hours, 35±2° C., 5% CO2; erm: ribosomal modification (mutation) erm genes
Procedure: as §1

S. pneum 1294 (mef) = test: microbe, parasite or virus in culture; format: cell-based, streptococcus pneumoniae; details: agar dilution, 18-24 hours, 35±2° C., 5% CO2; mef: efflux pump mef genes
Procedure: as §1

MoraXella MI = test: MIC, agar incorporation method (NCCLS agar dilution method); format: cell-based; details: 18-24 hours, 35±2° C.
Procedure: as §1

S. pneum ATCC 49619 = test: as above; format: cell-based, streptococcus pneumoniae; details: 18-24 hours, 35±2° C., 5% CO2
Procedure: as §1

S. pneum ATCC 6303 = test: as above; format: cell-based, streptococcus pneumoniae; details: 18-24 hours, 35±2° C., 5% CO2
Procedure: as §1

S. pneum CS 1687 (mef) = test: as above; format: cell-based, streptococcus pneumoniae; details: 18-24 hours, 35±2° C., 5% CO2, mef: efflux pump mef genes
Procedure: as §1

S. pneum AB 34 (mef) = test: as above; format: cell-based, streptococcus pneumoniae; details: 18-24 hours, 35±2° C., 5% CO2, mef: efflux pump mef genes
Procedure: as §1

S. pneum 1251 (mef) = test: as above; format: cell-based, streptococcus pneumoniae; details: 18-24 hours, 35±2° C., 5% CO2, mef: efflux pump mef genes
Procedure: as §1

H. inflenza ATCC 49247 = test: as above; format: cell-based, Haemophilus influenzae; details: agar dilution, 18-24 hours, 35±2° C., 5% CO2
Procedure: Minimum inhibitory concentrations (μg/ml) were obtained for representative compounds of the invention, which are given in Table 2.
as §1

3-O-(2-Fluorophenyl)acetyl-5-O-(3′-N-desmethyl-3′-N-allyl)desosaminyl-6-O-methyl erythronolide A [Compound No. 23]
Minimum Inhibitory Concentrations, S. pneum AB 14 (erm) (S. pneum AB 14 (erm)): >16 µg/mL
Minimum Inhibitory Concentrations, S. pneum 1256 (erm) (S. pneum 1256 (erm)): >16 µg/mL
Minimum Inhibitory Concentrations, S. pneum 1275 (erm) (S. pneum 1275 (erm)): >16 µg/mL
Minimum Inhibitory Concentrations, S. pneum AB 29 (erm) (S. pneum AB 29 (erm)): 1 µg/mL
Minimum Inhibitory Concentrations, S. pneum AB 30 (erm) (S. pneum AB 30 (erm)): >16 µg/mL
Minimum Inhibitory Concentrations, S. pneum 1294 (mef) (S. pneum 1294 (mef)): 2 µg/mL
Minimum Inhibitory Concentrations, MoraXella MI (MoraXella MI): 16 µg/mL
Minimum Inhibitory Concentrations, S. pneum ATCC 49619 (S. pneum ATCC 49619): 2 µg/mL
Minimum Inhibitory Concentrations, S. pneum ATCC 6303 (S. pneum ATCC 6303): 2 µg/mL
Minimum Inhibitory Concentrations, S. pneum CS 1687 (mef) (S. pneum CS 1687 (mef)): 2 µg/mL
Minimum Inhibitory Concentrations, S. pneum AB 34 (mef) (S. pneum AB 34 (mef)): >16 µg/mL
Minimum Inhibitory Concentrations, S. pneum 1251 (mef) (S. pneum 1251 (mef)): 2 µg/mL
Minimum Inhibitory Concentrations, H. inflenza ATCC 49247 (H. inflenza ATCC 49247): >16 µg/mL

CCC1OC(=O)C(C)C(OC(=O)Cc2ccc(F)cc2)C(C)C(OC2OC(C)CC(N(C)Cc3cccc(O)c3)C2O)C(C)(OC)CC(C)C(=O)C(C)C(O)C1(C)O (stereo not drawn) [Compound No. 17, 3-O-(4-Fluorophenyl)acetyl-5-O-[3′-N-desmethyl-3′-N-(3-hydroxy)benzyl] desosaminyl-6-O-methyl erythronolide A]
Minimum Inhibitory Concentrations, S. pneum AB 14 (erm) (S. pneum AB 14 (erm)): >16 µg/mL
Minimum Inhibitory Concentrations, S. pneum 1256 (erm) (S. pneum 1256 (erm)): >16 µg/mL
Minimum Inhibitory Concentrations, S. pneum 1275 (erm) (S. pneum 1275 (erm)): >16 µg/mL
Minimum Inhibitory Concentrations, S. pneum AB 29 (erm) (S. pneum AB 29 (erm)): <0.5 µg/mL
Minimum Inhibitory Concentrations, S. pneum AB 30 (erm) (S. pneum AB 30 (erm)): >16 µg/mL
Minimum Inhibitory Concentrations, S. pneum 1294 (mef) (S. pneum 1294 (mef)): 1 µg/mL
Minimum Inhibitory Concentrations, MoraXella MI (MoraXella MI): 8 µg/mL
Minimum Inhibitory Concentrations, S. pneum ATCC 49619 (S. pneum ATCC 49619): <0.5 µg/mL
Minimum Inhibitory Concentrations, S. pneum ATCC 6303 (S. pneum ATCC 6303): <0.5 µg/mL
Minimum Inhibitory Concentrations, S. pneum CS 1687 (mef) (S. pneum CS 1687 (mef)): 1 µg/mL
Minimum Inhibitory Concentrations, S. pneum AB 34 (mef) (S. pneum AB 34 (mef)): >16 µg/mL
Minimum Inhibitory Concentrations, S. pneum 1251 (mef) (S. pneum 1251 (mef)): 1 µg/mL
Minimum Inhibitory Concentrations, H. inflenza ATCC 49247 (H. inflenza ATCC 49247): >16 µg/mL

3-O-(4-Nitrophenyl)acetyl-5-O-(3′-N-desmethyl-3′-N-ethyl)desoaminyl-6-O-methyl erythronolide A [Compound No. 30]
Minimum Inhibitory Concentrations, S. pneum AB 14 (erm) (S. pneum AB 14 (erm)): >16 µg/mL
Minimum Inhibitory Concentrations, S. pneum 1256 (erm) (S. pneum 1256 (erm)): >16 µg/mL
Minimum Inhibitory Concentrations, S. pneum 1275 (erm) (S. pneum 1275 (erm)): >16 µg/mL
Minimum Inhibitory Concentrations, S. pneum AB 29 (erm) (S. pneum AB 29 (erm)): <0.5 µg/mL
Minimum Inhibitory Concentrations, S. pneum AB 30 (erm) (S. pneum AB 30 (erm)): >16 µg/mL
Minimum Inhibitory Concentrations, S. pneum 1294 (mef) (S. pneum 1294 (mef)): 2 µg/mL
Minimum Inhibitory Concentrations, MoraXella MI (MoraXella MI): 4 µg/mL
Minimum Inhibitory Concentrations, S. pneum ATCC 49619 (S. pneum ATCC 49619): 1 µg/mL
Minimum Inhibitory Concentrations, S. pneum ATCC 6303 (S. pneum ATCC 6303): 1 µg/mL
Minimum Inhibitory Concentrations, S. pneum CS 1687 (mef) (S. pneum CS 1687 (mef)): 1 µg/mL
Minimum Inhibitory Concentrations, S. pneum AB 34 (mef) (S. pneum AB 34 (mef)): >16 µg/mL
Minimum Inhibitory Concentrations, S. pneum 1251 (mef) (S. pneum 1251 (mef)): 1 µg/mL
Minimum Inhibitory Concentrations, H. inflenza ATCC 49247 (H. inflenza ATCC 49247): >16 µg/mL
